{"source": "patent US20100272800A1", "about": "(SANOVEL ILAC SANAYI VE TICARET ANONIM SIRKETI, priority 2009, published 2010)", "origin": "cited, not measured here", "data": [{"smiles": "Cc1cc2c(s1)Nc1ccccc1N=C2N1CCN(C)CC1", "note": "[Olanzapine, 2-methyl-4-(4-methyl-1-piperazinyl)-10H-thieno[2,3-b][1,5] benzodiazepine]", "values": [{"measurement": "solubility in water", "result": "practically insoluble in water"}]}]}
